# Assay results reported in patent US11142718B2, “Ecofriendly and biodegradable lubricant formulation and process for preparation thereof” (Council of Scientific & Industrial Research, priority 2017, dated 2021).
# Where two headings read alike, the source gives them in different places.
# Legend:
# Format in all cases: physicochemical
# [1] = Kinematic viscosity (IS: 1448: P-25); settings: for viscosity at 40° C.: in cSt; for KV in cst at 40° C.: P-25
# Description: (§1) In an embodiment of the present invention the polyol complex ester base oils may be selected from the viscosity range of 34.26 to 43.54 cSt at 40° C. as per IS: 1448: P-25 matching the specification and a high viscosity index of 161-171 as per P-56.
# (§2) The synthesized products have the following characteristics: • a. The prepared esters have viscosity grade of 31.0 to 47.0 cSt at 40° C. as per P-25 matching the specification and a high viscosity index of 161-171 as per P-56. • b. […] The biodegradability of the synthesized ester is above 95% as per the standard ASTM D: 5864 test method for biodegradability. • e. The products are non toxic to the sewage bacteria. • f. The conventional additives which are suitable for mineral oils are also giving positive response with this ester. • g. The products have good anti wear properties with wear scar diameter of 0.350 mm at 40 kgf load as per ASTM D: 4172B. • h. The products have excellent load bearing capacity. • i. The products have good lubricity. • j. The products have good oxidative stability. • k. The products have no evaporation loss. • l. The products have good adherence to metal characteristics. • m. The products have good corrosion inhibiting characteristics. • n. […] Synthetic biodegradable polyol complex ester lubricating oils have excellent biodegradability, a high viscosity index and a low pour point, a high flash point, very good lubricity, good oxidative stability and property of preventing corrosion and suitable for use with sealing materials. • p.
# [2] = Viscosity index (P-56)
# Description: as §1, §2
# [3] = Pour point (IS: 1448: P-10)
# Description: as §2
# [4] = Kinematic viscosity (IS: 1448: P-25); settings: for viscosity at 100° C. / viscosity at 0° C.: in cSt
# [5] = Density (ASTM D: 4052)
# [6] = Evaporation loss (P-136)
# [7] = Adherence to metal (drop diameter change, contact angle); settings: polished mild steel substrates
# [8] = Acidity (P-2)
smiles,measurement,setting,value
"CCCCC(CC)COC(=O)CCCCC(=O)OCC(CC)(CC)COC(=O)CCCCC(=O)OCC(CC)CCCC (centres unmarked) [DEADEH, 2,2-diethyl 1,3-propane di adipic 2 ethyl 1 hexanoate]",viscosity at 40° C.,[1],91.3
same,viscosity index,[2],138
same,pour point,[3],> −24 °C
same,viscosity at 100° C.,[4],12.83
"CCCCC(CC)COC(=O)CCCCCCCC(=O)OCC(CC)(CC)COC(=O)CCCCCCCC(=O)OCC(CC)CCCC (centres unmarked) [DEAZEH, 2,2-diethyl 1,3-propane diazelaic 2 ethyl 1 hexanoate]",KV in cst at 40° C.,[1],47.00 cst
same,viscosity at 40° C.,[1],47.0
same,viscosity index,[2],171
same,viscosity index,[2]; P-56,171
same,pour point,[3],> −39 °C
same,pour point,[3]; P-10,<−39 °C
same,"Density, d4^20",[5],0.9627 gm/ml
same,"Evaporation loss, % by mass",[6],0.42 % by mass
same,"Adherence to metal, change in diameter of the drop, percent",[7],13%
same,"Acidity, Inorganic",[8],Nil
same,"Acidity, Organic",[8],0.0635 mg KoH/gm of oil
same,KV in cst at 0° C.,[4],408.23 cst
same,viscosity at 0° C.,[4],408.23
same,KV in cst at −35° C.,[4],>5000 cst
"CCCCC(CC)COC(=O)CCCCCCCCC(=O)OCC(CC)(CC)COC(=O)CCCCCCCCC(=O)OCC(CC)CCCC (centres unmarked) [DESEH, 2,2-diethyl 1,3-propane disebacic 2 ethyl 1 hexanoate]",viscosity at 40° C.,[1],36.8
same,viscosity index,[2],165
same,pour point,[3],> −39 °C
same,viscosity at 100° C.,[4],7.24
"CCCCC(CC)COC(=O)CCCCC(=O)OCC(C)(C)COC(=O)CCCCC(=O)OCC(CC)CCCC (centres unmarked) [DMADEH, 2,2-dimethyl 1,3-propane di adipic 2 ethyl 1 hexanoate]",KV in cst at 40° C.,[1],31.00 cst
same,viscosity at 40° C.,[1],31.00
same,viscosity index,[2],161
same,viscosity index,[2]; P-56,161
same,pour point,[3],> −39 °C
same,pour point,[3]; P-10,<−39 °C
same,"Density, d4^20",[5],0.9915 gm/ml
same,"Evaporation loss, % by mass",[6],0.48 % by mass
same,"Adherence to metal, change in diameter of the drop, percent",[7],12%
same,"Acidity, Inorganic",[8],Nil
same,"Acidity, Organic",[8],0.0817 mg KoH/gm of oil
same,KV in cst at 0° C.,[4],323.98 cst
same,viscosity at 0° C.,[4],323.98
same,KV in cst at −35° C.,[4],>4000 cst
"CCCCC(CC)COC(=O)CCCCCCCC(=O)OCC(C)(C)COC(=O)CCCCCCCC(=O)OCC(CC)CCCC (centres unmarked) [DMAZEH, 2,2-dimethyl 1,3-propane diazelaic 2 ethyl 1 hexanoate]",viscosity at 40° C.,[1],25.44
same,viscosity index,[2],169
same,pour point,[3],> −27 °C
same,viscosity at 100° C.,[4],5.60
"CCCCC(CC)COC(=O)CCCCCCCCC(=O)OCC(C)(C)COC(=O)CCCCCCCCC(=O)OCC(CC)CCCC (centres unmarked) [DMSEH, 2,2-dimethyl 1,3-propane disebacid 2 ethyl 1 hexanoate]",viscosity at 40° C.,[1],90.33
same,viscosity index,[2],172
same,pour point,[3],> −24 °C
same,viscosity at 100° C.,[4],14.8
"CCCCC(CC)COC(=O)CCCCC(=O)OCC(CC)(COC(=O)CCCCC(=O)OCC(CC)CCCC)COC(=O)CCCCC(=O)OCC(CC)CCCC (centres unmarked) [THADEH, 1,1,1-trishydroxymethyl propane triadipic 2 ethyl 1 hexanoate]",viscosity at 40° C.,[1],26.51
same,viscosity index,[2],196
same,pour point,[3],> −15 °C
same,viscosity at 100° C.,[4],10.17
"CCCCC(CC)COC(=O)CCCCCCCC(=O)OCC(CC)(COC(=O)CCCCCCCC(=O)OCC(CC)CCCC)COC(=O)CCCCCCCC(=O)OCC(CC)CCCC (centres unmarked) [THAZEH, 1,1,1-trishydroxymethyl propane triazilaic 2 ethyl 1 hexanoate]",viscosity at 40° C.,[1],46.07
same,viscosity index,[2],165
same,pour point,[3],> −27 °C
same,viscosity at 100° C.,[4],8.53
"CCCCC(CC)COC(=O)CCCCCCCCC(=O)OCC(CC)(COC(=O)CCCCCCCCC(=O)OCC(CC)CCCC)COC(=O)CCCCCCCCC(=O)OCC(CC)CCCC (centres unmarked) [THSEH, 1,1,1-trishydroxymethyl propane trisebacic 2 ethyl 1 hexanoate]",viscosity at 40° C.,[1],111
same,viscosity index,[2],196
same,pour point,[3],> −24 °C
same,viscosity at 100° C.,[4],16.87
